Reference: ChEMBL document CHEMBL6114957, “Exploring anticancer properties of new triazole-linked benzenesulfonamide derivatives against colorectal carcinoma: Synthesis, cytotoxicity, and in silico insights” (Bioorg Med Chem, 2025)

Assays:
[1] = test system: HT-29; experiment: Cytotoxicity against human HT-29 cells assessed as cell viability incubated for 48 hrs by MTT assay; type: functional, cell-based; details: HT-29, 48 h
[2] = test system: DLD-1; experiment: Cytotoxicity against human DLD-1 cells assessed as cell viability incubated for 48 hrs by MTT assay; type: functional, cell-based; details: DLD-1, 48 h
[3] = Cytotoxicity against human CCD-986Sk cells assessed as cell viability incubated for 48 hrs by MTT assay; type: toxicity, cell-based
[4] = test system: COLO 205; experiment: Cytotoxicity against human COLO 205 cells assessed as cell viability incubated for 48 hrs by MTT assay; type: functional, cell-based; details: COLO 205, 48 h
[5] = test system: DLD-1; experiment: Induction of apoptosis in human DLD-1 cells assessed as early apoptotic cells at 10 uM incubated for 48 hrs by Annexin V staining based flow cytometry (reference value: 6.73 %); type: functional
[6] = test system: DLD-1; experiment: Induction of apoptosis in human DLD-1 cells assessed as late apoptotic cells at 10 uM incubated for 48 hrs by Annexin V staining based flow cytometry (reference value: 6.19 %); type: functional
[7] = test system: DLD-1; experiment: Induction of apoptosis in human DLD-1 cells assessed as necrotic cells at 10 uM incubated for 48 hrs by Annexin V staining based flow cytometry (reference value: 5.12 %); type: functional
[8] = test system: DLD-1; experiment: Induction of apoptosis in human DLD-1 cells assessed as viable cells at 10 uM incubated for 48 hrs by Annexin V staining based flow cytometry (reference value: 81.96 %); type: functional; details: read-out: Activity
[9] = test system: DLD-1; experiment: Induction of apoptosis in human DLD-1 cells assessed as early apoptotic cells at 5 uM incubated for 48 hrs by Annexin V staining based flow cytometry (reference value: 6.73 %); type: functional
[10] = test system: DLD-1; experiment: Induction of apoptosis in human DLD-1 cells assessed as necrotic cells at 5 uM incubated for 48 hrs by Annexin V staining based flow cytometry (reference value: 5.12 %); type: functional
[11] = test system: DLD-1; experiment: Induction of apoptosis in human DLD-1 cells assessed as late apoptotic cells at 5 uM incubated for 48 hrs by Annexin V staining based flow cytometry (reference value: 6.19 %); type: functional
[12] = test system: DLD-1; experiment: Induction of apoptosis in human DLD-1 cells assessed as viable cells at 5 uM incubated for 48 hrs by Annexin V staining based flow cytometry (reference value: 81.96 %); type: functional; details: read-out: Activity

SMILES | IC50 [1] | IC50 [2] | IC50 at 48 h [3] | IC50 [4] | Activity [5] | Activity [6] | Activity [7] | viability at 10 µM [8] | Activity [9] | Activity [10] | Activity [11] | viability at 5 µM [12]
NS(=O)(=O)c1ccc(-n2cc(COc3ccc(C(=O)c4ccccc4)cc3)nn2)cc1 | 20.6 µM | 19 µM | 15.2 µM | > 200 µM |  |  |  |  |  |  |  | 
Cc1ccc(OCc2cn(-c3ccc(S(N)(=O)=O)cc3)nn2)c([N+](=O)[O-])c1 | 62.8 µM | 13 µM | 25.9 µM | 165 µM |  |  |  |  |  |  |  | 
CCN(CC)c1ccc(C=O)c(OCc2cn(-c3ccc(S(N)(=O)=O)cc3)nn2)c1 | 41.9 µM | 53.4 µM | 185 µM | 148 µM |  |  |  |  |  |  |  | 
NS(=O)(=O)c1ccc(-n2cc(COc3ccc([N+](=O)[O-])cc3C=O)nn2)cc1 | 9.35 µM | 11.8 µM | > 200 µM | 132 µM | 33.56% | 8.59% | 2.85% | 55% |  |  |  | 
NS(=O)(=O)c1ccc(-n2cc(COc3ccccc3C=O)nn2)cc1 | 65 µM | 52.1 µM | 96.3 µM | 147 µM |  |  |  |  |  |  |  | 
NS(=O)(=O)c1ccc(-n2cc(COc3ccc(Br)cc3C=O)nn2)cc1 | > 200 µM | 51.1 µM | > 200 µM | > 200 µM |  |  |  |  |  |  |  | 
NS(=O)(=O)c1ccc(-n2cc(COc3ccc(Cl)cc3Cl)nn2)cc1 | 63.6 µM | 24.9 µM | 78.2 µM | 172 µM |  |  |  |  |  |  |  | 
Cc1ccc(C(C)C)cc1OCc1cn(-c2ccc(S(N)(=O)=O)cc2)nn1 | 35.9 µM | 16.6 µM | 12.8 µM | > 200 µM |  |  |  |  |  |  |  | 
NS(=O)(=O)c1ccc(-n2cc(COc3ccc([N+](=O)[O-])cc3)nn2)cc1 | 78 µM | 76.8 µM | 69.8 µM | 124 µM |  |  |  |  |  |  |  | 
C=CCc1ccc(OCc2cn(-c3ccc(S(N)(=O)=O)cc3)nn2)c(OC)c1 | 75.3 µM | 49.8 µM | 134 µM | > 200 µM |  |  |  |  |  |  |  | 
CC(=O)c1ccccc1OCc1cn(-c2ccc(S(N)(=O)=O)cc2)nn1 | 80 µM | 51 µM | 139 µM | 160 µM |  |  |  |  |  |  |  | 
CC(=O)c1cccc(OCc2cn(-c3ccc(S(N)(=O)=O)cc3)nn2)c1 | 128 µM | 79.2 µM | > 200 µM | 81.3 µM |  |  |  |  |  |  |  | 
NS(=O)(=O)c1ccc(-n2cc(COc3ccc(C=O)cc3)nn2)cc1 | > 200 µM | 164 µM | > 200 µM | 75.1 µM |  |  |  |  |  |  |  | 
NS(=O)(=O)c1ccc(-n2cc(COc3cccc(C=O)c3)nn2)cc1 | > 200 µM | 122 µM | > 200 µM | 40.9 µM |  |  |  |  |  |  |  | 
NS(=O)(=O)c1ccc(-n2cc(COc3ccc4ccccc4c3C=O)nn2)cc1 | > 200 µM | 153 µM | > 200 µM | > 200 µM |  |  |  |  |  |  |  | 
CC(=O)c1ccc(OCc2cn(-c3ccc(S(N)(=O)=O)cc3)nn2)cc1 | > 200 µM | 123 µM | > 200 µM | > 200 µM |  |  |  |  |  |  |  | 
CC(=O)c1cc(Cl)ccc1OCc1cn(-c2ccc(S(N)(=O)=O)cc2)nn1 | 187 µM | 15.9 µM | 51.3 µM | > 200 µM |  |  |  |  |  |  |  | 
COc1cccc(C=O)c1OCc1cn(-c2ccc(S(N)(=O)=O)cc2)nn1 | > 200 µM | 180 µM | > 200 µM | > 200 µM |  |  |  |  |  |  |  | 
Cc1ccc(C(C)C)c(OCc2cn(-c3ccc(S(N)(=O)=O)cc3)nn2)c1 | 33.2 µM | 35 µM | 13.1 µM | > 200 µM |  |  |  |  |  |  |  | 
O=c1[nH]cc(F)c(=O)[nH]1 [FLUOROURACIL] | 4.51 µM | 5.75 µM | 7.98 µM | 90.1 µM |  |  |  |  | 25.5% | 3.73% | 9.91% | 60.9%
